Results reported in article PMC7022493, “Kinetic, Thermodynamic, and Crystallographic Studies of 2-Triazolylthioacetamides as Verona Integron-Encoded Metallo-β-Lactamase 2 (VIM-2) Inhibitor” (Biomolecules, 2020).

Assays:
[1] = biological target: T1, VIM-2 (Pseudomonas aeruginosa, UniProt Q9K2N0); assay: VIM-2 enzyme-inhibition assay with nitrocefin as substrate (UV-Vis, 482 nm); assay type: biochemical, P. aeruginosa
T1 construct: made in house; host or cells: E. coli BL21 (DE3), plasmid pET24a-VIM-2
Protocol: The VIM-2 was overexpressed and purified as previously described. In brief, E. coli BL21 (DE3) cells were transelected with plasmid pET24a-VIM-2. A 10 mL overnight culture of these cells in lysogeny broth (LB) was used to inoculate of M9 media containing kanamycin (25 μg/mL). The cells were allowed to grow at 37 °C with shaking until the optical density at 600 nm (OD600) reached 0.6–0.8. VIM-2 expression was induced with 1 mM IPTG at 25 °C overnight. Cells were collected by centrifugation and lysed by sonication. The supernatant collected by centrifugation was dialyzed three times at 4 °C and loaded on a Q-Sepharose column. Bound protein was eluted with a 0–500 mM NaCl gradient in 30 mM Tris, pH 7.6. The further purification of crude VIM-2 was run though a G75 column (GE Healthcare, Boston, MA, USA) and eluted with 20 mM Tris, pH 7.6, containing 150 mM NaCl, and 5% β-mercaptoethanol. Enzyme purity was analyzed by SDS-PAGE, and determined the concentration by measuring the absorption at 280 nm (extinction co-efficient: 39,000 M^−1cm^−1) using the Nanodrop 2000 c spectrophotometer (Thermo Scientific, Waltham, MA, USA).
The percent inhibition (inhibition%, enzyme activity without inhibitor minus residual activity with 100 μM inhibitor) and IC50 (the inhibitor concentrations causing 50% decrease of enzyme activity) values were measured using a previously established enzyme-inhibition assay on an Agilent UV8453 UV−Vis spectrophotometer using 60 μM nitrocefin (monitoring at 482 nm) as a substrate. The 2-triazolylthioacetamides 1a–j, 2a–e, and 3a–e were dissolved with DMSO and diluted with ddH2O. The VIM-2 and nitrocefin were prepared with a Tris buffer (30 mM, pH 7.6). The final concentration of DMSO inhibition experiments was below 1%. The IC50 values were determined in triplicate against VIM-2, where the inhibitor concentrations were varied between 0 and 120 µM, and final concentrations VIM-2 was 0.6 nM. The tested VIM-2 and inhibitors were premixed at room temperature (30 mM Tris, pH 7.6), and then the substrate in the same buffer was added to the mixture, the initial rates of nitrocefin hydrolysis were recorded at each inhibitor concentration. The percentage inhibition was calculated by the equation inhibition% = 1 − (Vi/V0) and IC50 values were calculated by plotting the average inhibition% against inhibitor concentration and fitting of the data.
To evaluate 2-triazolylthioactamides, the VIM-2 was expressed and purified as previously described. The steady-state kinetic assays were conducted on an Agilent UV8453 spectrometer using nitrocefin (60 µM) as a substrate and monitoring its hydrolytic product at 482 nm.
IC50 values of 1a–j against VIM-2 were measured in 30 mM Tris, pH 7.6, in which the concentrations of inhibitors were varied between 0 and 120 µM. […] Moreover, clogP values of 1a–j (Table 1), as predicted by the ALOGPS 2.1 program, are in the range 1.88–3.05, which are similar with many marked antibacterial agents.

[2] = tested on: E. coli DH10B-VIM-2; assay: MIC by broth micro-dilution, cefazolin alone or with inhibitors, E. coli producing VIM-2; assay type: cell-based; settings: for Decrease in MIC of cefazolin: inhibitor 128 μg/mL
Protocol: The minimum inhibitory concentration (MIC) of antibiotics, both alone and in the presence of enzyme inhibitors, was determined using the broth micro-dilution method. E. coli DH10B containing plasmid pBCSK-VIM-2 grown in MH medium to OD600 = 0.45 were used as inocula, after an 84-fold dilution to 1 × 10^5 CFU/mL in MH medium. Cefazolin was dissolved in MH medium to prepare 1024, 512, 256, 128, 64, 32, 16, and 8 for E. coli producing VIM-2 stock solutions, respectively. Compounds 1a–j, 2a–e, and 3a–e were dissolved in DMSO and diluted with MH media to prepare 64 µg/mL stock solutions. The 50 μL prepared stock solutions with different cefazolin concentrations were diluted with a 50 μL inhibitor stock solution, then 100 μL inoculum was added sequentially. The final concentration of both the inhibitor and cefazolin were a quarter of the stock solution concentrations.
The ability of 2-triazolylthioactamides to restore the antimicrobial activity of cefazolin against the bacteria producing VIM-2 was investigated by determining the MICs of β-lactams in the presence and absence of inhibitors (16 μg/mL). E. coli DH10B containing plasmid pBCSK-VIM-2 was used to study these inhibitors. […] Although the strains treated with a high dose of 2-triazolylthioacetamides (128 μg/mL) were still resistant, they are promising in the future.

[3] = biological target: T1, VIM-2; assay: Binding affinity to VIM-2 by isothermal titration calorimetry (ITC); parameters: species or system P. aeruginosa; settings: for TΔS / ΔH / Ka / ΔG: ITC, 298 K, Tris-HCl; for TΔS / ΔH / ΔG: pH 7.6; for Ka: pH 7.6, single binding site model; for ΔG: ∆G = ∆H − T∆S
Protocol: Binding affinity measurements were performed by ITC on a Malvern MicroCal-ITC200 at 298 K. The syringe stirring rate was 750 rpm and kept constant. A stock of VIM-2 and inhibitor (1b, 1c, and 1h) were prepared in Tris buffer (30 mM, pH 7.6) with 1% DMSO. The concentration of VIM-2 was 100 μM. Before the injections, the solution of enzyme and inhibitor were degassed by centrifugation (32,583× g, 5 min), respectively. Then, the prepared VIM-2 solution was transferred into the sample cell (210 μL), and the inhibitor (1 mM) in the syringe was titrated into the sample cell by 18 injections (0.5 μL for the first injection and 1.5 μL for the other 17 injections) with 120 s intervals per injection. The heat of dilution for the inhibitor was determined in the control experiment and subtracted from the integrated data before curve fitting. The data were fitted and analyzed with single binding sites using Origin 7.0 software, provided with the instrument.
To investigate the binding affinity of 2-triazolylthioactamides to VIM-2, 1b, 1c, and 1h as enzyme inhibitors were selected based on the inhibitory activity. […] After the best fitting by the single binding site model, the affinity constant (Ka), corresponding dissociation constant (Kd), and thermodynamic parameters (∆H, ΔS, and ΔG) were determined and listed in Table 3.

[4] = tested on: E. coli cells without VIM-2; assay: Antibacterial activity (MIC) against E. coli cells without VIM-2; assay type: cell-based; settings: Escherichia coli, read-out: MIC of cefazolin

SMILES: O=C(CSc1nnc(-c2ccccc2C(=O)O)[nH]1)Nc1ccccc1[N+](=O)[O-] [Compound 1i]
- IC50 [1]: 45.2 ± 0.1 µM

SMILES: O=C(CSc1nnc(-c2ccccc2C(=O)O)[nH]1)Nc1ccc([N+](=O)[O-])cc1 [Compound 1e]
- IC50 [1]: 38.2 ± 0.3 µM

SMILES: O=C(CSc1nnc(-c2ccccc2C(=O)O)[nH]1)Nc1ccccc1Cl [Compound 1g]
- IC50 [1]: 31.4 ± 0.4 µM
- Decrease in MIC of cefazolin [2]: 32 fold

SMILES: O=C(CSc1nnc(-c2ccccc2C(=O)O)[nH]1)Nc1nc2ccccc2[nH]1 [Compound 1b]
- IC50 [1]: 58.6 ± 0.1 µM
- Decrease in MIC of cefazolin [2]: 16 fold
- Kd [3]: 8.62 µM
- TΔS [3]: 4.26 kcal/mol
- ΔH [3]: -2.66 kcal/mol
- Ka [3]: 116000 M⁻¹
- ΔG [3]: -6.92 kcal/mol

SMILES: O=C(CSc1nnc(-c2ccccc2C(=O)O)[nH]1)Nc1ccccc1 [Compound 1a]
- IC50 [1]: 40.8 ± 0.3 µM

SMILES: O=C(CSc1nnc(-c2ccccc2C(=O)O)[nH]1)Nc1ccc(Cl)cc1 [Compound 1d]
- IC50 [1]: 52.2 ± 0.5 µM

SMILES: O=C(CSc1nnc(-c2ccccc2C(=O)O)[nH]1)Nc1nc2ccccc2s1 [Compound 1c]
- IC50 [1]: 49.1 ± 0.1 µM
- Decrease in MIC of cefazolin [2]: 16 fold
- Kd [3]: 7.94 µM
- TΔS [3]: 5.34 kcal/mol
- ΔH [3]: -1.61 kcal/mol
- Ka [3]: 126000 M⁻¹
- ΔG [3]: -6.95 kcal/mol

SMILES: O=C(CSc1nnc(-c2ccccc2C(=O)O)[nH]1)NCc1ccccc1 [Compound 1f]
- IC50 [1]: 45.8 ± 0.2 µM

SMILES: O=C(CSc1nnc(-c2ccccc2C(=O)O)[nH]1)Nc1cccc([N+](=O)[O-])c1 [Compound 1j]
- IC50 [1]: 57.6 ± 0.4 µM

SMILES: O=C(CSc1nnc(-c2ccccc2C(=O)O)[nH]1)Nc1cccc(Cl)c1 [Compound 1h]
- IC50 [1]: 20.6 ± 0.1 µM
- Decrease in MIC of cefazolin [2]: 32 fold
- Kd [3]: 6.41 µM
- TΔS [3]: 1.98 kcal/mol
- ΔH [3]: -5.10 kcal/mol
- Ka [3]: 156000 M⁻¹
- ΔG [3]: -7.08 kcal/mol

SMILES: Cc1nnc(SCC2=C(C(=O)O)N3C(=O)[C@@H](NC(=O)Cn4cnnn4)[C@H]3SC2)s1 [cefazolin, reference compound]
- MIC ([2]; Escherichia coli, DH10BVIM2, read-out: MIC of cefazolin): 128 µg/mL
- MIC [4]: 1 µg/mL
